{"source": "patent US9527847B2", "about": "“Treatment of lupus, fibrotic conditions, and inflammatory myopathies and other disorders using PI3 kinase inhibitors” (INFINITY PHARMACEUTICALS, INC., priority 2012, dated 2016)", "key": {"B cell proliferation": {"tested_on": "B cell proliferation", "test": "B cell proliferation EC50 (Table 3)", "assay_type": "cell-based", "conditions": "in vitro"}, "PI3K-δ": {"target": "PI3K-δ (Homo sapiens, UniProt O00329)", "sequence (O00329 whole entry, species assumed)": "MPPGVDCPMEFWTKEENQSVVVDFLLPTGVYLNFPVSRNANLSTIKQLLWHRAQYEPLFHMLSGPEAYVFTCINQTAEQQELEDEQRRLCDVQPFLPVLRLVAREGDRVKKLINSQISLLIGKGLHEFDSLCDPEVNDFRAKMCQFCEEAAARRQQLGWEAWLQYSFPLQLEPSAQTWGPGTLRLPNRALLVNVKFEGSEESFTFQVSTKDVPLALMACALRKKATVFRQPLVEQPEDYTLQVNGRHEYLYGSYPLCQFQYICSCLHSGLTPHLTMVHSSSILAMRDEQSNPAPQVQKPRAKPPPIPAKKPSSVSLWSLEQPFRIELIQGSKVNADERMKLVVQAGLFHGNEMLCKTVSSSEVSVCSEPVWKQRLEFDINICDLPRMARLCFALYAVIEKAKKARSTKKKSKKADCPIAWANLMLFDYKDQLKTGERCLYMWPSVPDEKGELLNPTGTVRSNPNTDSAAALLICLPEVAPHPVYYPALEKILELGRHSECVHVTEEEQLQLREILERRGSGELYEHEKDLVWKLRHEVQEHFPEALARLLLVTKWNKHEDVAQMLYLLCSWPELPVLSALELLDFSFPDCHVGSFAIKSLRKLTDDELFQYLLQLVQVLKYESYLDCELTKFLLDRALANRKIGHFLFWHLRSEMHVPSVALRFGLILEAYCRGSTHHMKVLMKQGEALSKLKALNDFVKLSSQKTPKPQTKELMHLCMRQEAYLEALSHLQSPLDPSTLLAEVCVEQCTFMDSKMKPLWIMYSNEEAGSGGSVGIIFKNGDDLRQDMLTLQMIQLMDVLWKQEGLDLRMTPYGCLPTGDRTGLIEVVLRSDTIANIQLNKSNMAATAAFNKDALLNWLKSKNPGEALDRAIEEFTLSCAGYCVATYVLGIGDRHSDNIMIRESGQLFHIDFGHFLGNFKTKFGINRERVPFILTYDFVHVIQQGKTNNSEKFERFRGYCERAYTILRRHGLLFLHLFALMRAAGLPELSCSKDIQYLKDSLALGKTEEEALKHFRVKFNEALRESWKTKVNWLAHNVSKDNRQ", "sequence (P27986 whole entry partner, species assumed)": "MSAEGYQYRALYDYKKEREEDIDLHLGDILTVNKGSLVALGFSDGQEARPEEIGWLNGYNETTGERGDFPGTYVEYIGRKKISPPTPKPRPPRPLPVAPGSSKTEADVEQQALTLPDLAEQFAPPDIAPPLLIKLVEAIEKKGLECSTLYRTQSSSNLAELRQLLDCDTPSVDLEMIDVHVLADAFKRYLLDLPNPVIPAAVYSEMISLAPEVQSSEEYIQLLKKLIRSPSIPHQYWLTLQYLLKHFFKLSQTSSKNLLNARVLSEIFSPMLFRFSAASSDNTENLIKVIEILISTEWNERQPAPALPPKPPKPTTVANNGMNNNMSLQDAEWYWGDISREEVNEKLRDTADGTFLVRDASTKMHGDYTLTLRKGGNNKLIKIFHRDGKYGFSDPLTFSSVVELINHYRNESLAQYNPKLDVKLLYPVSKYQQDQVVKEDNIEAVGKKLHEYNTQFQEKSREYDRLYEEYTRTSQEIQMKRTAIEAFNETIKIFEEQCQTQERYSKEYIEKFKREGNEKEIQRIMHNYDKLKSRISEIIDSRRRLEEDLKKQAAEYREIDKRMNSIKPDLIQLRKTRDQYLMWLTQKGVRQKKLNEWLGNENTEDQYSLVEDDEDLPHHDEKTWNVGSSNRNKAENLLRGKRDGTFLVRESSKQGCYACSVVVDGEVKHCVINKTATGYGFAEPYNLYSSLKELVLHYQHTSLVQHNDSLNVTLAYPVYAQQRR", "test": "One exemplary assay, PI3K-δ activity", "assay_type": "biochemical", "conditions": "overall, several assays"}, "[1]": {"tested_on": "Murine B-cell proliferation", "test": "Murine B-cell proliferation", "assay_type": "cell-based", "conditions": "Mus musculus"}, "[2]": {"tested_on": "Human B-cell proliferation", "test": "Human B-cell proliferation", "assay_type": "cell-based"}, "[3]": {"tested_on": "PI3K-δ specific basophil activation", "test": "Anti-fCER1 BAT (delta), basophil activation in human whole blood", "assay_type": "cell-based", "conditions": "Table 5"}, "[4]": {"tested_on": "TLR9 (CPG-A induced cytokines)", "test": "CPG-A induced cytokine production in PBMCs", "assay_type": "cell-based, human", "description": "Human PBMCs were stimulated with CPG-A. CPG-A selectively activates PDCs, inducing IFN-α production via TLR9. IFN-α is a PDC cell selective readout. Primary human PBMCs from two normal human donors were used as a source of PDC cells. 200 K cells per well were used. […] Then the cells were treated with the specified concentration of CPG-A for 16 hours. RPMI-5% serum was employed.\n(§1) These experiments were conducted using PBMCs."}, "[5]": {"tested_on": "TL2/TLR6 (PAM2CSK4 induced cytokines)", "test": "PAM2CSK4 induced cytokine production in PBMCs", "assay_type": "cell-based, human", "description": "as §1"}, "R848 induced cytokines": {"tested_on": "R848 induced cytokines", "test": "R848 induced cytokine production in PBMCs", "assay_type": "cell-based, human", "description": "as §1"}, "LPS induced cytokines": {"tested_on": "LPS induced cytokines", "test": "LPS induced cytokine production in PBMCs", "assay_type": "cell-based, human", "description": "as §1"}, "NZBWF1/J mice": {"tested_on": "NZBWF1/J mice", "test": "Murine NZB/W F1 lupus model", "assay_type": "in vivo, mouse", "conditions": "vs vehicle; for Glomerulonephritis score reduction: kidney histopathology; for Plasma anti-dsDNA IgG levels: days 49, 98, 140 (age 30, 37, 43 wk)", "excerpt": "Female NZBWF1/J mice (n=60) that were 8 weeks old on arrival and weighed approximately 35-51 grams (mean 42 g) at enrollment (mouse age approx. 23 weeks) were obtained from The Jackson Laboratory, Bar Harbor, Me. (stock number 100008). Animals were identified by a distinct number of ink marks at the base of the tail delineating animal number. After enrollment, all cages were labeled with protocol number, group number, and animal numbers.\nMice were terminated at age 43 weeks (day 140).\nAll dose solutions were prepared to deliver in 10 ml/kg (0.3 ml/30 g mouse).\nBody weights were measured and recorded prior to study initiation for randomization, on the first day of dosing prior to dosing, and weekly throughout the study. Body weights were also recorded at scheduled termination points and as needed if test subjects appeared to decrease in weight by visual inspection. The animals were observed daily for significant clinical signs, morbidity and mortality.\nUrine from each animal was tested weekly (beginning at mouse age 23 weeks) for proteinuria using Clinitech Multistick test strips (Bayer).\nAt necropsy, animals were anesthetized with isoflorane and bled via cardiac puncture for serum (for clinical chemistry analysis) and plasma (for Anti-dsDNA ELISA and PK). Terminal urine was collected and assessed. Spleens and kidneys (paired) were collected, weighed, and placed in 10% NBF. Serum obtained at necropsy was sent to Antech Diagnostics for analysis. Terminal plasma samples were split with half being used for Anti-dsDNA ELISA and the other half being shipped to the sponsor.\nAnti-dsDNA IgG analysis was performed on days 0, 49, 98, and 140 (mouse age 23, 30, 37, and 43 weeks). Anti-dsDNA IgG levels were determined using an Anti-dsDNA IgG ELISA Kit (Alpha Diagnostic, kit #5120, lot #90903K4) following manufacturer's instructions.\nBlood samples for clinical chemistry evaluation were collected at termination via cardiac puncture from Isoflurane anesthetized animals into serum separator microtainer tubes. Serum was sent to Antech Diagnostics for analysis.\nThe following parameters were measured: Albumin (ALB), Albumin: Globulin ratio (A/G), Alkaline phosphatase (ALK), Alanine aminotransferase (ALT), Aspartate aminotransferase (AST), Calcium (CA), Magnesium (Mg), Phosphorous (P), Globulin (GLOB), Electrolytes (Sodium (Na), Potassium (K), Chloride (Cl)), Gamma glutamyltransferase (GGT), Total bilirubin (TBILI), Amylase (AMY), Lipase (LIP), Osmolality, Triglycerides (TRIG), Total cholesterol (CHOL), Urea nitrogen (BUN), Creatinine (CREAT), Glucose (GLU), Total protein (TP), and Creatinine kinase (CPK).\nHistopathologic evaluation was performed on kidneys. Kidneys from all surviving animals were examined microscopically by a board certified veterinary pathologist and observations were entered into a computer-assisted data retrieval system. Kidney sections were stained with Masson's Trichrome, or Hematoxylin and Eosin. To maintain blinding of the analysis, slides were labeled with the animal number with no reference to treatment group.\nKidneys were scored according to the following system (developed by Chan O, Madaio M P, Shlomchik M J. The roles of B cells in MRL/lpr murine lupus. Annals New York Academy of Sciences, 1997; 815:75-82), modified to suit the lesion severity.\n• 0=Normal. • 1=Focal or multifocal, minimal to mild, early proliferative. • 2=Multifocal mild to moderate or mild diffuse proliferative. • 3=Diffuse moderate proliferative with or without multifocal severe areas. • 4=Marked diffuse proliferative, with crescents/sclerosis, multifocal protein casts present. • 5=Severe diffuse proliferative, with crescents/sclerosis, diffuse protein casts present. […]"}, "[6]": {"conditions": "serum at termination, Compound 292 (1, 5, 10 mg/kg), Dex 2 mg/kg"}}, "note": "Entries after “also recorded” stand apart in the source; their conditions may differ."}
{"smiles": "C[C@H](Nc1ncnc2[nH]cnc12)c1cc2cccc(Cl)c2c(=O)n1-c1ccccc1", "note": "[Compound 292]", "values": [{"measurement": "EC50", "setting": "B cell proliferation", "value": "< 100", "unit": "nM"}, {"measurement": "PI3K-δ inhibited at lower dose compared to PI3K-γ, PI3K-β or PI3K-α", "setting": "PI3K-δ", "value": "at least 10 fold"}, {"measurement": "EC50", "setting": "[1]", "value": 0.5, "unit": "nM"}, {"measurement": "EC50", "setting": "[2]", "value": 0.5, "unit": "nM"}, {"measurement": "EC50", "setting": "[3]", "value": 78, "unit": "nM"}, {"measurement": "CPG-A induced IFN-α production", "setting": "[4]", "value": "potently inhibited; also recorded: blocked"}, {"measurement": "CPG-A induced IL-6 production", "setting": "[4]", "value": "Inhibited"}, {"measurement": "CPG-A induced IL-8 production", "setting": "[4]", "value": "Inhibited"}, {"measurement": "CPG-A induced TNF-α production", "setting": "[4]", "value": "Inhibited"}, {"measurement": "PAM2CSK4 induced IL-1 production", "setting": "[5]", "value": "Inhibited"}, {"measurement": "PAM2CSK4 induced IL-6 production", "setting": "[5]", "value": "Inhibited"}, {"measurement": "PAM2CSK4 induced IL-8 production", "setting": "[5]", "value": "Inhibited"}, {"measurement": "PAM2CSK4 induced TNF-α production", "setting": "[5]", "value": "Inhibited"}, {"measurement": "R848 induced IFN-α", "setting": "R848 induced cytokines", "value": "did not detectably affect"}, {"measurement": "R848 induced IL-1", "setting": "R848 induced cytokines", "value": "slightly inhibited"}, {"measurement": "R848 induced IL-6", "setting": "R848 induced cytokines", "value": "did not detectably affect"}, {"measurement": "R848 induced IL-8", "setting": "R848 induced cytokines", "value": "did not detectably affect"}, {"measurement": "R848 induced TNF-α", "setting": "R848 induced cytokines", "value": "did not detectably affect"}, {"measurement": "LPS induced IL-1 production", "setting": "LPS induced cytokines", "value": "enhanced"}, {"measurement": "LPS induced IL-6 production", "setting": "LPS induced cytokines", "value": "enhanced"}, {"measurement": "LPS induced IL-8 production", "setting": "LPS induced cytokines", "value": "did not detectably affect"}, {"measurement": "LPS induced TNF-α production", "setting": "LPS induced cytokines", "value": "enhanced"}, {"measurement": "Glomerulonephritis score reduction", "setting": "NZBWF1/J mice; 1 mg/kg PO QD", "value": 68, "unit": "%"}, {"measurement": "Urine protein levels", "setting": "NZBWF1/J mice; 1 mg/kg PO QD, p<0.05 at mouse age 43 wk", "value": "significantly reduced"}, {"measurement": "Perivascular inflammation score reduction", "setting": "NZBWF1/J mice; 1 mg/kg PO QD", "value": 79, "unit": "%"}, {"measurement": "Protein cast severity reduction", "setting": "NZBWF1/J mice; 1 mg/kg PO QD", "value": 100, "unit": "%"}, {"measurement": "Spleen weight reduction", "setting": "NZBWF1/J mice; 1 mg/kg PO QD", "value": 39, "unit": "%"}, {"measurement": "Summed histopathology scores reduction", "setting": "NZBWF1/J mice; 1 mg/kg PO QD", "value": 67, "unit": "%"}, {"measurement": "Plasma anti-dsDNA IgG levels", "setting": "NZBWF1/J mice; 5 mg/kg PO QD", "value": "significantly reduced"}, {"measurement": "Glomerulonephritis score reduction", "setting": "NZBWF1/J mice; 5 mg/kg PO QD", "value": 89, "unit": "%"}, {"measurement": "Urine protein levels", "setting": "NZBWF1/J mice; 5 mg/kg PO QD, p<0.05 at mouse age 43 wk", "value": "significantly reduced"}, {"measurement": "Interstitial nephritis score reduction", "setting": "NZBWF1/J mice; 5 mg/kg PO QD", "value": 54, "unit": "%"}, {"measurement": "Perivascular inflammation score reduction", "setting": "NZBWF1/J mice; 5 mg/kg PO QD", "value": 90, "unit": "%"}, {"measurement": "Protein cast severity reduction", "setting": "NZBWF1/J mice; 5 mg/kg PO QD", "value": 100, "unit": "%"}, {"measurement": "Spleen weight reduction", "setting": "NZBWF1/J mice; 5 mg/kg PO QD", "value": 54, "unit": "%"}, {"measurement": "Summed histopathology scores reduction", "setting": "NZBWF1/J mice; 5 mg/kg PO QD", "value": 81, "unit": "%"}, {"measurement": "Plasma anti-dsDNA IgG levels", "setting": "NZBWF1/J mice; 10 mg/kg PO QD", "value": "significantly reduced"}, {"measurement": "Glomerulonephritis score reduction", "setting": "NZBWF1/J mice; 10 mg/kg PO QD", "value": 100, "unit": "%"}, {"measurement": "Urine protein levels", "setting": "NZBWF1/J mice; 10 mg/kg PO QD, p<0.05 at mouse age 42-43 wk", "value": "significantly reduced"}, {"measurement": "Interstitial nephritis score reduction", "setting": "NZBWF1/J mice; 10 mg/kg PO QD", "value": 67, "unit": "%"}, {"measurement": "Perivascular inflammation score reduction", "setting": "NZBWF1/J mice; 10 mg/kg PO QD", "value": 100, "unit": "%"}, {"measurement": "Protein cast severity reduction", "setting": "NZBWF1/J mice; 10 mg/kg PO QD", "value": 100, "unit": "%"}, {"measurement": "Spleen weight reduction", "setting": "NZBWF1/J mice; 10 mg/kg PO QD", "value": 55, "unit": "%"}, {"measurement": "Summed histopathology scores reduction", "setting": "NZBWF1/J mice; 10 mg/kg PO QD", "value": 91, "unit": "%"}, {"measurement": "Body weight loss (percent change from baseline)", "setting": "NZBWF1/J mice; 1, 5 or 10 mg/kg PO QD 20 wk, over time", "value": "did not differ significantly"}, {"measurement": "Kidney weight", "setting": "NZBWF1/J mice; 1, 5 or 10 mg/kg PO QD", "value": "did not differ significantly"}, {"measurement": "% of animals with proteinuria (urine protein levels >300 mg/dl)", "setting": "NZBWF1/J mice; all doses (1, 5, or 10 mg/kg), animal age 43 weeks", "value": "significantly reduced"}, {"measurement": "Sodium (Na)", "setting": "NZBWF1/J mice; serum at termination, Compound 292 1 mg/kg", "value": "significantly increased"}, {"measurement": "Amylase (AMY)", "setting": "NZBWF1/J mice; serum at termination, Compound 292 5 mg/kg, Dex 2 mg/kg", "value": "significantly reduced"}, {"measurement": "Magnesium (Mg)", "setting": "NZBWF1/J mice; serum at termination, Compound 292 10 mg/kg, Dex 2 mg/kg", "value": "significantly increased"}, {"measurement": "Aspartate aminotransferase (AST)", "setting": "NZBWF1/J mice; serum at termination, Compound 292 (1, 5, 10 mg/kg)", "value": "significantly reduced"}, {"measurement": "Albumin (ALB)", "setting": "NZBWF1/J mice; [6]", "value": "significantly increased"}, {"measurement": "Blood urea nitrogen (BUN)", "setting": "NZBWF1/J mice; [6]", "value": "significantly reduced"}, {"measurement": "Calcium (CA)", "setting": "NZBWF1/J mice; [6]", "value": "significantly increased"}, {"measurement": "Creatine kinase (CPK)", "setting": "NZBWF1/J mice; [6]", "value": "significantly reduced"}, {"measurement": "Globulin (GLOB)", "setting": "NZBWF1/J mice; [6]", "value": "significantly reduced"}, {"measurement": "Triglycerides (TRIG)", "setting": "NZBWF1/J mice; [6]", "value": "significantly reduced"}]}
